Assay results reported in patent US9045793B2, “Method of regulating the expression level of survival of motor neuron 1” (KAOHSIUNG MEDICAL UNIVERSITY, priority 2011, dated 2015).
Peptide text beside a SMILES is read from it. * marks the point of attachment. Cbz = O=C(OCc1ccccc1)*

How the values were obtained:
[1] = system: SMN protein in SMA patients' skin fibroblast cells; test: Cellular SMN protein level in SMA patients' skin fibroblast cells; assay type: cell-based, human
Protocol: (§1) Western blot analysis and immunohistochemical staining were performed as described previously. The primary antibodies used in this study were β-actin (1:2,000, Santa Cruz, 1-19), SMN (1:1,000, Santa Cruz, SC-32313), Gemin 2, Gemin 3 and Gemin 5 polyclonal antibody (1:200, Santa Cruz), UCHL1 monoclonal antibodies (1:2,000, Calbiochem.), HA-tag (1:2,000, Sigma), FITC-conjugated anti-mouse, alkaline phosphatase-conjugated anti-rabbit antibodies (1:500, Jackson ImmunoResearch Lab.) and anti-EGFP rabbit polyclonal antibody (1:5,000, produced in-house).
In order to investigate the possibility of therapeutic application, the UCHL1 specific inhibitor was also applied to the SMA patients' skin fibroblast cells. Type II and type III SMA skin fibroblast cells were treated with MG132, a proteasome inhibitor, and LDN-57444.

[2] = system: SMN protein in NSC34 cells; test: Cellular SMN protein level after LDN-57444 treatment (Western blot); assay type: cell-based; details: for SMN protein expression level increase compared to the vehicle group: 5 μM; for SMN protein increase: 10 μM
Protocol: as §1
The cellular function of UCHL1 on SMN protein was further characterized with an over-expression assay. The UCHL1 was tagged with HA tag and over expressed in HEK293, p19 and NSC34 cells to evaluate the cellular function. […] The regulatory effect of UCHL1 was also confirmed with UCHL1 specific inhibitor (FIGS. 5A and 5B). SMN protein could effectively elevate expression level at 5 μM after LDN-57444 treatment for 8 (38%), 16 (42%), 24 (43%) and 48 (46%) hours compared to the vehicle group (FIGS. 5A and 5B).

[3] = system: nucleus gems in NSC34 cells; test: Nucleus gems count by immunofluorescence staining (anti-Gemin 2); assay type: cell-based; details: for increase of gems number per one hundred cells comparing to vehicle: NSC34 cells, 10 μM; for Total number of nucleus gems per 100 cells: NSC-34 cells
Protocol: The cellular expression localization of UCHL1 and SMN was determined by immunofluorescence as previously described (Hsu, S. H. et al. (2004) Exp Cell Res, 294, 185-198). HEK 293 and NSC34 cells were cultured on coverslides pre-coated with poly-L-lysine for 16 hours. After washing with cold PBS, cells were fixed with 2% paraformaldehyde in PBS for 30 minutes on ice, and then the slides were washed with PBS for 30 minutes. Cells were permeabilized with buffer containing 0.2% Triton X-100 and 1% NGS in PBS for 20 minutes on ice, and then the slides were washed with PBS to remove excess detergent. Cells were then incubated in anti-EGFP (or anti-HA) and anti-SMN polyclonal antibody (1:200) for 1 hour at room temperature. After washing cells with PBS for 30 minutes, FITC-conjugated […] anti-rabbit and -mouse polyclonal antibody (1:300) was added and the cells were incubated for another 1 hour at room temperature in a humid chamber. Cells were finally counterstained with DAPI to localize the nucleus and observed by confocal microscopy.
In additional to the use of specific UCHL1 inhibitor, the specific shRNAi constructs for UCHL1 were also used to monitor the regulatory effects of UCHL1 on SMN protein. […] The knockdown efficiency of these shRNAi constructs to UCHL1 was 25, 70 and 47% of vector control and the SMN protein was increased 32, 46 and 47% (FIG. 5D). […] The cellular function of elevated SMN was also examined with nucleus gems by immuno-fluorescence staining (FIG. 5E). The nucleus gems stained with anti-Gemin 2 antibody were counted for one hundred NSC34 treated with vehicle or LDN-57444 for 24 hours and 48 hours.

[4] = system: ubiquitinated SMN protein in NSC34 cells; test: Cellular ubiquitination of SMN (anti-SMN immunoprecipitation, anti-ubiquitin blot); assay type: cell-based; details: different concentrations of inhibitor
Protocol: Immunoprecipitation assays were performed as previously described with some modifications. Cells with endogenous or ectopically expressed UCHL1 were lysed with RIPA buffer containing 0.2% SDS. After sonication, the lysate was diluted with modified RIPA containing 1% NP-40 for immunoprecipitation. Anti-UCHL1 or anti-SMN antibodies were used to immunoprecipitate the protein. The re-suspended IP complexes were then analyzed by Western blot.
Next, to determine the functional significance of this interaction, purified UCHL1 tagged with 6×His was co-incubated with SMN immunoprecipitate and in vitro ubiquitination assay was performed. […] The SMN protein complex was immunoprecipitated from total cell extract treated with different concentrations of UCHL1 inhibitor and the level of ubiquitinated SMN was determined by the use of anti-ubiquitin antibody.

Structure (SMILES) | increase of cellular SMN protein level ([1]; type I SMA skin fibroblast cells) | increase of cellular SMN protein level ([1]; type II SMA skin fibroblast cells) | increase of cellular SMN protein level ([1]; type III SMA skin fibroblast cells) | SMN protein expression level increase compared to the vehicle group ([2]; 8 hours) [%] | SMN protein expression level increase compared to the vehicle group ([2]; 16 hours) [%] | SMN protein expression level increase compared to the vehicle group ([2]; 24 hours) [%] | SMN protein expression level increase compared to the vehicle group ([2]; 48 hours) [%] | SMN protein increase ([2]; 8 hours) [%] | SMN protein increase ([2]; 16 hours) [%] | SMN protein increase ([2]; 24 hours) [%] | SMN protein increase ([2]; 48 hours) [%] | SMN protein level, time course at high dosage ([2]; 15 μM) | increase of gems number per one hundred cells comparing to vehicle ([3]; 24 hours) [fold] | increase of gems number per one hundred cells comparing to vehicle ([3]; 48 hours) [fold] | Total number of nucleus gems per 100 cells ([3]; 10 μmol/l, 24 h) [per 100 cells] | Total number of nucleus gems per 100 cells ([3]; 10 μmol/l, 48 h, medium and LDN-57444 replaced each day) [per 100 cells] | Total number of nucleus gems per 100 cells ([3]; 20 μmol/l, 24 h) [per 100 cells] | Total number of nucleus gems per 100 cells ([3]; 20 μmol/l, 48 h, medium and LDN-57444 replaced each day) [per 100 cells] | level of ubiquitinated SMN protein [4] | cellular SMN protein level (in words) ([1]; SMA skin fibroblast cells, positive control)
CC(=O)O/N=C1\C(=O)N(Cc2cc(Cl)ccc2Cl)c2ccc(Cl)cc21 [LDN-57444] | 52-62% | 31-38% | 72-87% | 38 | 42 | 43 | 46 | 40 | 56 | 83 | 53 | time delay increase in SMN protein level until 16 hours | 2.25 | 2.54 | 142±7.55 | 164 ± 8.50 | 189 ± 10.72 | 193 ± 10.21 |  | 
CC(C)C[C@@H](C=O)NC(=O)[C@H](CC(C)C)NC(=O)[C@H](CC(C)C)NC(=O)OCc1ccccc1 [MG132] (Cbz-Leu-Leu-Leu-aldehyde) |  |  |  |  |  |  |  |  |  |  |  |  |  |  |  |  |  |  | same enhancement | increased cellular SMN protein level
